Test results reported in patent US9127037B2, “Crystalline rostafuroxin” (ROSTAQUO S.P.A., priority 2005, dated 2015).

Legend:
Solubility in water = format: physicochemical
Protocol: A mixture of 5.00 grams of rostafuroxin (amorphous or any other crystalline form) and 50 ml of absolute ethanol was stirred until clearness. This solution was than added dropwise into 250 ml of water at room temperature under vigorous stirring at room temperature. At the end of addiction, the mixture was filtered and washed with deionized water. The product was dried under vacuum at 40° C. for 16 hours. The product contained 10.6% of water, corresponding to about 2.5 moles of water per mole of rostafuroxin (rostafuroxin.2.5H2O). Yield: 55%.

Na—K pump = details: cultured renal cells, cited from earlier work
[1] = molecular target: purified sodium, potassium ATPase enzyme (Na—K ATPase); details: in vitro; read-out: IC50, displacement of ouabain from its binding sites on purified Na—K ATPase; cited from earlier work
[2] = test system: other receptors involved in blood pressure regulation or hormonal control; details: in vitro; cited from earlier work
[3] = test system: rats made hypertensive by chronic infusion of ouabain; details: ouabain 50 microg/kg/day chronic infusion, per os 0.1-1 microg/kg/day for 4 weeks; cited from earlier work
normotensive rats = details: cited from earlier work

CC12CCC(O)CC1CCC1C2CCC2(C)C(O)(c3ccoc3)CCC12O (stereo not drawn) [Form F, 17β-(3-furyl)-5β-androstane-3β,14β,17α-triol]
solubility in water (Solubility in water): low solubility

C[C@@H]1O[C@@H](O[C@H]2C[C@@H](O)[C@]3(CO)[C@H]4[C@H](O)C[C@]5(C)[C@@H](C6=CC(=O)OC6)CC[C@]5(O)[C@@H]4CC[C@]3(O)C2)[C@H](O)[C@H](O)[C@H]1O [ouabain, reference compound]
concentration that stimulated the Na—K pump at Vmax (Na—K pump; incubation for 5 days): 10^−10 to 10^−8 M

C[C@]12CC[C@H](O)C[C@H]1CC[C@@H]1[C@@H]2CC[C@]2(C)[C@@](O)(c3ccoc3)CC[C@]12O [rostafuroxin, 17β-(3-furyl)-5β-androstane-3β,14β,17α-triol]
IC50 [1]: 1700 nM
interaction with other receptors involved in blood pressure regulation or hormonal control [2]: without interacting
concentrations that abolished the ouabain-dependent increase in the Na—K pump rate (Na—K pump): 10^−14 to 10^−9 M
stimulation of the Na—K pump at Vmax (same effect as ouabain) (Na—K pump): showed the same effect at micromolar concentration
increase in blood pressure caused by ouabain [3]: abolished
increase in renal Na—K ATPase activity caused by ouabain [3]: abolished
blood pressure (normotensive rats): did not affect
renal Na—K ATPase activity (normotensive rats): did not affect
